Measured values published in PubChem BioAssay (NCI).
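Step 1: Grow cells in 96-well plates. Step 2: Expose to compound for 48 hours at 5 concentrations. Step 3: Interpolate endpoints linearly; if unreached, use highest concentration. TGI marks complete inhibition of growth.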

Key:
Experiment in all cases: inhibition of tumour cell growth, NCI panel, 48 h
SW-620 colon = test system: SW-620 colon
HCT-15 colon = test system: HCT-15 colon
SNB-75 CNS = test system: SNB-75 CNS
OVCAR-4 ovarian = test system: OVCAR-4 ovarian
UACC-257 melanoma = test system: UACC-257 melanoma
RPMI-8226 leukemia = test system: RPMI-8226 leukemia
MDA-MB-435 = test system: MDA-MB-435
SNB-19 CNS = test system: SNB-19 CNS
IGROV1 ovarian = test system: IGROV1 ovarian
BT-549 breast = test system: BT-549 breast

| Structure (SMILES) | TGI (SW-620 colon) | TGI (HCT-15 colon) | TGI (SNB-75 CNS) | TGI (OVCAR-4 ovarian) | TGI (UACC-257 melanoma) | TGI (RPMI-8226 leukemia) | TGI (MDA-MB-435) | TGI (SNB-19 CNS) | TGI (IGROV1 ovarian) | TGI (BT-549 breast) |
| --- | --- | --- | --- | --- | --- | --- | --- | --- | --- | --- |
| COc1ccc2[nH]c(CCNC(=O)c3cc([N+](=O)[O-])cc([N+](=O)[O-])c3)cc2c1 | > 100 µM | > 100 µM | 46.2 µM | > 100 µM | > 100 µM | > 100 µM | > 100 µM | > 100 µM | > 100 µM | > 100 µM |
| CCN1CC2=C(N=c3s/c(=C\c4ccc(Cl)cc4)c(=O)n3C2c2ccc(Cl)cc2)/C(=C/c2ccc(Cl)cc2)C1 (stereo not given) | > 100 µM | > 100 µM | 9.74 µM | > 100 µM | > 100 µM | > 100 µM | > 100 µM | > 100 µM | > 100 µM | 85.8 µM |
| Cn1c(=O)oc2cc(C(=O)CSC(=S)N3CCCCCC3)ccc21 | > 100 µM | > 100 µM | > 100 µM | > 100 µM | > 100 µM | > 100 µM | > 100 µM | > 100 µM | > 100 µM | > 100 µM |
| CCCCCCCCCOC(=O)c1cnc(Cl)cn1 | 32.5 µM | 32 µM | 51.5 µM | 71.1 µM | 45.6 µM | 63.5 µM | 40.8 µM | 47.5 µM | 36 µM | 63.3 µM |
| Brc1cccc(/C=C/CN2CCN(CCOC(c3ccccc3)c3ccccc3)CC2)c1 | 45.4 µM | 40.1 µM | 20.2 µM | 25.2 µM | 33.4 µM | 19.4 µM | 25.2 µM | 37.7 µM | 29.8 µM | 31.1 µM |
| CCOC(=O)c1nc2cc(N3CCOCC3)c(F)cc2[nH]c1=O | > 100 µM | > 100 µM | > 100 µM | > 100 µM | > 100 µM | > 100 µM | > 100 µM | > 100 µM | > 100 µM | > 100 µM |
| C[C@]12CC[C@@H]3c4ccc(O)cc4CC[C@H]3[C@@H]1C/C(=C\c1ccc([N+](=O)[O-])cc1)C2=O | > 100 µM | > 100 µM | > 100 µM | > 100 µM | > 100 µM | > 100 µM | > 100 µM | > 100 µM | > 100 µM | > 100 µM |
| COC(=O)c1ccccc1C1CN=NC12Cc1ccc3ccccc3c1C2=O (stereo not given) | > 100 µM | > 100 µM | > 100 µM | > 100 µM | > 100 µM | > 100 µM | > 100 µM | > 100 µM | > 100 µM | > 100 µM |
| Cc1[nH]c2ncn3nc(C(Cl)(Cl)Cl)nc3c2c1Cc1ccccc1 | > 100 µM | > 100 µM | > 100 µM | > 100 µM | > 100 µM | > 100 µM | > 100 µM | > 100 µM | > 100 µM | > 100 µM |
| CCOC(=O)c1cc2cc(N(C(C)=O)C(C)=O)ccc2s1 | > 100 µM | > 100 µM | 39.9 µM | > 100 µM | > 100 µM | 45.3 µM | > 100 µM | > 100 µM | > 100 µM | 91.5 µM |
| CNC(=S)/C(=N\Nc1nc[nH]c1C(N)=O)C(N)=S | > 92 µM | > 100 µM | 71.9 µM | > 100 µM | > 100 µM | 55.7 µM | > 100 µM | > 100 µM | > 61 µM | > 100 µM |
| O=C(O)CC(C(=O)O)c1ccccc1[N+](=O)[O-] (stereo not given) | > 100 µM | > 100 µM | > 100 µM | > 100 µM | > 100 µM | > 100 µM | > 100 µM | > 100 µM | > 100 µM | > 100 µM |
| Cc1ccc(-c2c(C#N)c(-c3ccc(Cl)cc3)c(C#N)c(=O)n2NS(=O)(=O)c2ccccc2)cc1 | > 100 µM | > 100 µM | > 100 µM | > 100 µM | > 100 µM | 51.6 µM | > 100 µM | > 100 µM | > 100 µM | > 100 µM |
| COc1ccc2c(c1)C(N)CC2=O (stereo not given) | > 100 µM | > 100 µM | > 100 µM | > 100 µM | > 100 µM | > 100 µM | > 100 µM | > 100 µM | > 100 µM | > 100 µM |
| CC(=O)ON(OC(C)=O)c1ccc(C)cc1 | > 100 µM | > 100 µM | > 100 µM | > 100 µM | > 100 µM | > 100 µM | > 100 µM | > 100 µM | > 100 µM | > 100 µM |
| O=C(OCCN=C1c2ccccc2CCc2ccccc21)c1cc([N+](=O)[O-])cc([N+](=O)[O-])c1 | > 31.6 µM | > 31.6 µM | > 100 µM | > 100 µM | > 31.6 µM | 8.14 µM | > 31.6 µM | > 31.6 µM | > 31.6 µM | > 100 µM |
